Literature values as cited in patent US20160235839A1, “CALCIUM FLUORIDE COMPOSITIONS” (priority 2013, published 2016).

Test system: chicken red blood cells
Settings: no cholesterol

QS21
Hemolytic activity of QS21 by itself: too hemolytic
